Measurements published in patent US20250375450A1, “SMARCA2/4 INHIBITION AS A STRATEGY TO TREAT TUMORS THAT HARBOR ABERRANT BAF ASSEMBLIES” (BOARD OF REGENTS, THE UNIVERSITY OF TEXAS SYSTEM, priority 2022, published 2025).
Entries after “also recorded” stand apart in the source; their conditions may differ.

What was measured:
[1] = target: T1, SMARCA2 (Homo sapiens, UniProt P51531); assay: ATPase activity of SMARCA2 on different DNA/chromatin substrates (enzyme-coupled phosphate release assay); format: biochemical; conditions: 5 μM AT-301; 147 bp nucleosomal DNA, 29 bp duplex DNA, NCP
T1 construct: The SMARCA2-1 gene (amino acids 437-1493) encompassing all domains; made in house; host or cells: expiSF9 insect cells (baculovirus, pFASTBac1)
T1 sequence (P51531 437-1493): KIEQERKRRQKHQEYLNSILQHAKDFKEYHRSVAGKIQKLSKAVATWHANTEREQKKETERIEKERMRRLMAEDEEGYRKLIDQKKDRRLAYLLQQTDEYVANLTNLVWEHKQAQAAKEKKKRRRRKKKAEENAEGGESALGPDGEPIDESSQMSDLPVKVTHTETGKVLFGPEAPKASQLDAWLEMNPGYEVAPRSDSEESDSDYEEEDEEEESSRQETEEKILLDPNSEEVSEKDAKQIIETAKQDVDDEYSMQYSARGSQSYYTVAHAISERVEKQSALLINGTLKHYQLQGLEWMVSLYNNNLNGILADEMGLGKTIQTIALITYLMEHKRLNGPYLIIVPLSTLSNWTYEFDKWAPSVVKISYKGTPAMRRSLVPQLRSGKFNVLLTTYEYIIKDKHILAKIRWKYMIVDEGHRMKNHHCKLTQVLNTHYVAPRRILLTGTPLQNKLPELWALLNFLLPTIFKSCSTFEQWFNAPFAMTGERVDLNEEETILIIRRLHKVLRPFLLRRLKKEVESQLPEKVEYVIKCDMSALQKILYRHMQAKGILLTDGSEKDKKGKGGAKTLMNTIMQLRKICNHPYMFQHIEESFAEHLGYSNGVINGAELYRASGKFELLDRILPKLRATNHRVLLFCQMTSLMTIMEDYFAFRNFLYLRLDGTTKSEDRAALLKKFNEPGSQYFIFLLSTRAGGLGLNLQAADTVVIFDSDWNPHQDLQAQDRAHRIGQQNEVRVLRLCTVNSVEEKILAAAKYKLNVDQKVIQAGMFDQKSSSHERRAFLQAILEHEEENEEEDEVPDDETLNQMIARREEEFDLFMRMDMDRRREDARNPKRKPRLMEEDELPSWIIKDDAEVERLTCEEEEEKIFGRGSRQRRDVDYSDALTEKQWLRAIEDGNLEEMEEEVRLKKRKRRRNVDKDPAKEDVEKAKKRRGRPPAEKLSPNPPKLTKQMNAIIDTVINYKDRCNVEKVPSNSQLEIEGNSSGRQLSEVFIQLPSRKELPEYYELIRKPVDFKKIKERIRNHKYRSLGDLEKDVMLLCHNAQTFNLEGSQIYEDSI
Excerpt: FIG. 9A-C show representative data illustrating that AT-301 attenuates the ATPase activity of SMARCA2 in different DNA/chromatin substrates.
In brief, the disclosed ATPase assay is based on the inorganic phosphate (Pi) release from the enzymatic reaction, wherein the substrate 2-amino-6-mercapto-7-methylpurine ribose (MESG) is converted by purine phosphorylase (PNP) to ribose 1-phosphate and 2-amino-6-mercapto-7-methylpurine. This conversion changes the spectrophotometric shift of MSEG absorbance from 330 nm to 360 nm (FIG. 1C and FIG. 1D).
SMARCA2 can interact with nucleosomal, extra nucleosomal DNA, and a DNA wrapped around the histone octamer. These substrates were prepared, and the ATPase activity of SMARCA2 on these substrates were evaluated in the presence and absence of AT-301. Specifically, as shown in FIG. 9A-C, mononucleosome core particles (NCP) were reconstituted from purified histone octamer and 147 bp widom nucleosomal DNA. An electromobility shift assay (EMSA) was used to monitor the direct binding of SMARCA2 to NCP. […] The ATPase activity of SMARCA2 was also evaluated on alternative substrates (a 29-mer duplex DNA, 147 bp nucleosomal DNA, and reconstituted NCP).

[2] = tested on: Jurkat; assay: Cell proliferation assay and IC50 measurement (PrestoBlue); format: cell-based; conditions: Homo sapiens, PrestoBlue cell viability
Procedure: (§1) FIG. 10A-C show representative data illustrating that AT-301 kills Ewing's, RMS, GBM, AML, and other cancer cells. Cell lines were treated with serial dilutions (2×) of AT-301, and IC50 values of each cell line were determined using PrestoBlue dye for cell viability following manufacturer's protocol (Invitrogen, A13261). See also Table 3.
(§2) Jurkat, Molt-4, RH4, RH30, BT40, GBM2, ES3, ES6, ES7, HC827, H1975, H2030 cells: RPMI 1640, 10% FBS, Penicillin (100 units/mL) and streptomycin (100 μg/mL) in the presence of 5% CO2.
(§3) Proliferation of adherent cells was determined on the IncuCyte live-cell imaging system (Essen BioScience). Cells were seeded on clear bottom 96 well plates at a seeding density of 2000 cells/well. Cells were allowed to attach overnight after which the medium was replaced with fresh medium containing serial dilutions (2×) of the compound or DMSO control. Percent confluence was calculated by the IncuCyte software from four different images per well from at least three replicate wells. For non-adherent cells, the 96-well plates were coated with poly-L-lysine before seeding to facilitate cell adhesion. At the end of the assay, dose-dependent cell viability was determined by staining the cells with PrestoBlue (Invitrogen, A13261) as per manufacturer's instructions and IC50 was calculated (FIG. 10).

[3] = tested on: RH30; assay: as above; format: cell-based; conditions: PrestoBlue cell viability
Procedure: as §1, §2, §3

[4] = tested on: HCC827; assay: as above; format: cell-based; conditions: Homo sapiens, PrestoBlue cell viability
Procedure: as §1, §2, §3

[5] = tested on: ES7; assay: as above; format: cell-based; conditions: Homo sapiens, PrestoBlue cell viability
Procedure: as §1, §2, §3

[6] = tested on: BT40; assay: as above; format: cell-based; conditions: PrestoBlue cell viability
Procedure: as §1, §2, §3

[7] = tested on: ES3; assay: as above; format: cell-based; conditions: PrestoBlue cell viability
Procedure: as §1, §2, §3

[8] = tested on: H1975; assay: as above; format: cell-based; conditions: Homo sapiens, NCI-H1975, PrestoBlue cell viability
Procedure: as §1, §2, §3

[9] = tested on: Molt4; assay: as above; format: cell-based; conditions: Homo sapiens, MOLT-4, PrestoBlue cell viability
Procedure: as §1, §2, §3

[10] = tested on: ES6; assay: as above; format: cell-based; conditions: PrestoBlue cell viability
Procedure: as §1, §2, §3

[11] = tested on: RH4; assay: as above; format: cell-based; conditions: PrestoBlue cell viability
Procedure: as §1, §2, §3

[12] = tested on: H2030; assay: as above; format: cell-based; conditions: Homo sapiens, NCI-H2030, PrestoBlue cell viability
Procedure: as §1, §2, §3

[13] = tested on: GBM2; assay: as above; format: cell-based; conditions: PrestoBlue cell viability
Procedure: as §1, §2, §3

[14] = target: T1, SMARCA2; assay: Secondary ATPase assay; format: biochemical
Procedure: Exemplary compounds were evaluated for their ability to inhibit human SMARCA2 in ATPase assays as detailed in Table 2 below. Dose response curves for compound nos.

[15] = tested on: ovarian cancer cells; assay: Growth/killing of ovarian cancer cells; format: cell-based; conditions: dose-dependent
Procedure: as §3
Referring to FIG. 10A, AT-301 kills a variety of cancer cells (brain tumors, rhabdomyosarcoma, nonsmall cell lung cancer, leukemia, and Ewing's Sarcoma. We also tested whether AT-301 can kill cells representing gynecological cancers (ovarian and endometrial cancer). As shown in FIG. 10B-C, AT-301 kills a variety of ovarian and endometrial cancer cells.

[16] = tested on: RH41 cells; assay: Cell cycle analysis, propidium iodide/RNase flow cytometry; format: cell-based; conditions: 7.5 μM AT-301, 24 hours
Procedure: Referring to FIG. 11A and FIG. 11B, RH4 (FIG. 11A) and ES3 (FIG. 11B) cells were treated with the indicated concentrations of BAF-X-1 or DMSO in triplicate and apoptosis was detected using the IncuCyte Caspase 3/7 green dye (Sartorius). Brightfield and green fluorescence images were captured every 2 hours from 4 fields per well on the IncuCyte live cell imager. The proportion of caspase positive (green) cells relative to % confluence of the well was calculated on the IncuCyte software and plotted against time. Referring to FIG. 11C and FIG. 11D, RH41 cells were treated with 7.5 μM AT-301 (FIG. 11D) or DMSO (FIG. 11C) for 24 hours, harvested with accutase, washed, and fixed in 70% ethanol. They were subsequently stained with propidium iodide/RNase and fluorescence was analyzed on BD flow cytometer. Resulting data was analyzed using FlowJo software.
To test the alterations in cell cycle upon AT-301 treatment, RH41 cells were cultured in 12 well plates, detached using Accutase (Corning, 25-058-Cl), washed with PBS, and fixed in 70% ethanol. For staining, the fixed cells were washed with PBS and stained with FxCycle PI/RNase staining solution (Invitrogen, F10797) as per the supplier's directions. Fluorescence intensity of stained cells was measured on (BD system) and analyzed using FlowJo.

For `Clc1ccc(CNc2nc(NC3CCCC3)nc3ccccc23)cc1Cl` [AT-301, N^2-cyclopentyl-N^4-(3,4-dichlorobenzyl)quinazoline-2,4-diamine], the “ATPase activity of SMARCA2 on different substrates” value [1] was “uniformly reduced; also recorded: significantly attenuated”, the IC50 [2] was 2.81 µM and the IC50 [3] was 2.96 µM. For the same compound, the IC50 [4] was 5.21 µM, the IC50 [5] was 4.83 µM and the IC50 [6] was 3.49 µM. For the same compound, the IC50 [7] was 5.21 µM, the IC50 [8] was 5.31 µM and the IC50 [9] was 4.39 µM. It also gave an IC50 [10] of 2.84 µM, an IC50 [11] of 6.54 µM and an IC50 [12] of 6.26 µM. The IC50 [13] was 3.54 µM, the IC50 [14] was ~5 µM and the “Growth/killing of ovarian cancer cells” value [15] was “kills; also recorded: inhibits the growth”. The Cell cycle alteration [16] was “arrested in GO-Gi phase”.
